According to PMC3817062, “N-Alkylated Aminoacyl sulfamoyladenosines as Potential Inhibitors of Aminoacylation Reactions and Microcin C Analogues Containing D-Amino Acids” (PLoS ONE, 2013):
Non-standard residues stand in square brackets, D forms with d. Residues, ends and D or L forms follow the SMILES beside them. *: point of attachment. AspNHSO2(5'-O-Ado) = Nc1ncnc2c1ncn2[C@@H]1O[C@H](COS(=O)(=O)NC(=O)[C@H](CC(=O)O)N*)[C@@H](O)[C@H]1O; X1 = Nc1ncnc2c1ncn2[C@@H]1O[C@H](COS(=O)(=O)NC(=O)[C@@H](CC(=O)O)N*)[C@@H](O)[C@H]1O; For = O=C*

How the values were obtained:
[1] = target: T1, AlaRS (Escherichia coli, UniProt P00957); conditions: positive control, previously shown; cited from earlier work
T1 construct: endogenous in cells; host or cells: E. coli wild-type S30 cell extract
Protocol: (§1) All experiments were performed in triplicate.

[2] = target: T2, GlyRS (Escherichia coli, UniProt P00960); conditions: positive control, previously shown; cited from earlier work
[3] = target: T3, ProRS (Escherichia coli, UniProt P16659); conditions: positive control, previously shown; cited from earlier work
T3 construct: endogenous in cells; host or cells: E. coli wild-type S30 cell extract
Protocol: as §1

[4] = tested on: McC-sensitive E. coli; assay: Whole cell activity determination (OD600), all cells tested; format: cell-based; conditions: all cells tested (Ara-Yej strain, E. coli lacking rim genes); OD600 after 8 h, 37 °C, LB; data not shown
[5] = target: T4, LeuRS (Escherichia coli, UniProt P07813); assay: In vitro tRNA aminoacylation in S30 cell extract, LeuRS; format: biochemical, E. coli; conditions: 50 µM, wild-type cell extract, triplicate; Figure 3
T4 construct: endogenous in cells; host or cells: E. coli wild-type S30 cell extract
Protocol: (§2) The growth inhibitory properties for all new compounds were determined by measuring the optical density reached by cultures of McC-sensitive E. coli in wells of microtiter plates in the presence of various concentrations of the respective inhibitors. As shown earlier, the intracellular target of McC analogs is determined by the C-terminal amino acid, which remains attached onto the sulfamoyladenosine following intracellular metabolism. To facilitate activity evaluation and the mechanism of action studies of newly synthesized compounds, an E. coli tester strain Ara-Yej (BW39758) was used, where the yejABEF operon is under control of the arabinose-inducible araBAD promoter. […] In addition to the Ara-Yej strain, E. coli lacking rim genes (and therefore hypersensitive to McC) was used as a tester strain. […] In in vitro aminoacylation experiments, compound 3 was tested for its potential to inhibit ProRS, GlyRS and AlaRS and compound 2 was tested for its ability to inhibit LeuRS in a wild-type cell extract. Established inhibitors of these enzymes are the respective 5’-O-[N-[L-aminoacyl]-sulfamoyl]adenosines: Pro-SA, Gly-SA, Ala-SA and Leu-SA [2-4]. […]
(§3) 1 μL of solution containing inhibitor, 3 μL of E. coli S30 extracts was added. […] Following the addition of scintillation liquid, the amount of radioactivity was determined in a scintillation counter.

[6] = target: T3, ProRS; assay: In vitro tRNA aminoacylation in S30 cell extract, ProRS; format: biochemical, E. coli; conditions: 50 µM, wild-type cell extract, triplicate; Figure 3
Protocol: as §2, §3

[7] = target: T2, GlyRS; assay: In vitro tRNA aminoacylation in S30 cell extract, GlyRS; format: biochemical, E. coli; parameters: endogenous in cells; host or cells: E. coli wild-type S30 cell extract; conditions: 50 µM, wild-type cell extract, triplicate; Figure 3
Protocol: as §2, §3

[8] = target: T1, AlaRS; assay: In vitro tRNA aminoacylation in S30 cell extract, AlaRS; format: biochemical, E. coli; conditions: 50 µM, wild-type cell extract, triplicate; Figure 3
Protocol: as §2, §3

[9] = tested on: peptidases PepA, PepB and PepN; assay: Metabolism (processing) of the peptide chain by peptidases, release of the active moiety; format: in vitro ADME; conditions: E. coli S30 cell extracts; concluded from aminoacylation inhibition experiments
Text: This is a somewhat expected result as it has frequently been shown that the introduction of (D)-amino acids can prevent the hydrolysis by peptidases.
Compounds 5-7 were especially designed to circumvent this problem; all three compounds contain L-amino acids at the sixth and seventh position, allowing endopeptidases to cleave between these two L-amino acids, resulting in release of the active moiety. […] Also the modification in compound 6, inspired by albomycin whereby pepN hydrolyzes the peptide bond between a serine and a modified amino acid carrying an acidic side chain [22], could not rescue the activity. […] Whether or not incorporation of (D)-amino acids in the transport peptide part interferes with uptake of the McC derivatives by the YejABEF transporter is less relevant here, as in vitro tests already show lack of activity. Additional reduced uptake of the analogues 4-7 however cannot be excluded.
Cells were grown in 50 mL LB-medium. After centrifuging at 3000 × g for 10 min. the supernatant was discarded and the pellet was resuspended in 40 mL buffer containing: Tris.HCl or Hepes.KOH (pH = 8.0) (20 mM), MgCl2 (10 mM), KCl (100 mM). […]
as §3

[10] = target: T5, AspRS (Escherichia coli, UniProt P21889); assay: In vitro tRNA aminoacylation in S30 cell extracts, AspRS; format: biochemical, E. coli; conditions: for inhibition of AspRS in vitro: aminoacylation in cell extracts, compound needs no metabolism
T5 construct: endogenous in cells; host or cells: S30 extracts of E. coli ΔrimL, ΔpepABN and Δdtd cells
Protocol: Figure 5 Aminoacylation experiments of the McC analogues containing (D)-amino acids at 50 µM. Upper panel: 30 min incubation with a cell extract deficient of RimL. Middle panel: 30 min incubation with a cell extract deficient of PepA, PepB and PepN. Lower panel: Comparison of two McC analogues targeting AspRS, compound 8 having a C-terminal D-configuration, compound 1f having a C-terminal (L)-configuration. Incubation was done with two different cell extracts, lacking either DTD or RimL.
To investigate whether compound 8 would be more resistant than compound 1f to MccF-catalyzed hydrolysis and/or MccE/RimL-catalyzed acetylation, and to investigate a possible role of DTD, a time-course of tRNA^Asp aminoacylation inhibition was followed in two different cell extracts, one prepared from cells lacking Rim proteins, and another from cells lacking DTD. From Figure 5 (lower panel) it can be observed that at time point zero, i.e., immediately after addition of the compounds, there was no inhibition since the compounds were still unmetabolized. […] Upon further incubation, the reaction recovered from inhibition for both compounds. For compound 8 this effect was more pronounced than for compound 1f, especially in cell extracts prepared from cells lacking DTD proteins.
To assess the degree of inhibition of the aminoacylation reaction, in vitro tests were performed using the relevant S30 cell extracts.
Cells were grown in 50 mL LB-medium. After centrifuging at 3000 × g for 10 min. the supernatant was discarded and the pellet was resuspended in 40 mL buffer containing: Tris.HCl or Hepes.KOH (pH = 8.0) (20 mM), MgCl2 (10 mM), KCl (100 mM). The cell-suspension was centrifuged again at 4800 rpm. This procedure was repeated 2 times. The pellet was resuspended in 1 mL of the following buffer Tris.HCl or Hepes.KOH (pH = 8.0) (20 mM), MgCl2 (10 mM), KCl (100 mM), DTT (1 mM) and kept at 0 °C. Subsequently, the cells were sonicated for 10 sec. and left at 0 °C for 10 min. This procedure was repeated for 5-8 times. The lysate was centrifuged at 15000 g for 30 min at +4 °C.
1 μL of solution containing inhibitor, 3 μL of E. coli S30 extracts was added. Next, 16 μL of the following aminoacylation mixture was added: Tris.HCl (30mM, pH 8.0), DTT (1 mM), bulk of E. coli tRNA (5 g/l), ATP (3 mM), KCl (30 mM), MgCl2 (8 mM), and the specified, radio labeled amino acid (40 μM). The reaction products were precipitated in cold 10% TCA on Whatman 3MM papers, 5 min. after the aminoacylation mixture was added. The aminoacylation reaction was carried out at room temperature. Depending on whether or not processing was needed, variable time intervals were included between the addition of the cell-extract and the addition of the aminoacylation mixture. After thorough washing with cold 10% TCA, the papers were washed twice with acetone and dried on a heating plate. Following the addition of scintillation liquid, the amount of radioactivity was determined in a scintillation counter.

[11] = time course, extract from cells lacking DTD, at 15 min

T5 sequence (P21889 whole entry): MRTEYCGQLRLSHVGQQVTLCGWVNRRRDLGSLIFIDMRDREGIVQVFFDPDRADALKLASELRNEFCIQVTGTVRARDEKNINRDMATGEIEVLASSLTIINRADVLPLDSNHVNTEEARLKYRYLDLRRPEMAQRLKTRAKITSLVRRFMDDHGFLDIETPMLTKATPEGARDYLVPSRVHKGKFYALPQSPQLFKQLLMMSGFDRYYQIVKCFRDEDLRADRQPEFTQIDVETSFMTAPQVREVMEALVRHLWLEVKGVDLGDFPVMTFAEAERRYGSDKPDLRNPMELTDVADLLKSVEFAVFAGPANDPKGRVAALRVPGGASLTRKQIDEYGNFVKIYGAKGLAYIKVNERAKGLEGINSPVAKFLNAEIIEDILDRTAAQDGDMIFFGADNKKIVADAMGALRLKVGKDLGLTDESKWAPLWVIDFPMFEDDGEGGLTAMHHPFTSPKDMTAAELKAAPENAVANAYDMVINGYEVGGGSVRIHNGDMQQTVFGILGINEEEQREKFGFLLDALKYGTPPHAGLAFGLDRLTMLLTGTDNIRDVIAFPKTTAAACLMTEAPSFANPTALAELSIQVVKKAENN
T1 sequence (P00957 whole entry): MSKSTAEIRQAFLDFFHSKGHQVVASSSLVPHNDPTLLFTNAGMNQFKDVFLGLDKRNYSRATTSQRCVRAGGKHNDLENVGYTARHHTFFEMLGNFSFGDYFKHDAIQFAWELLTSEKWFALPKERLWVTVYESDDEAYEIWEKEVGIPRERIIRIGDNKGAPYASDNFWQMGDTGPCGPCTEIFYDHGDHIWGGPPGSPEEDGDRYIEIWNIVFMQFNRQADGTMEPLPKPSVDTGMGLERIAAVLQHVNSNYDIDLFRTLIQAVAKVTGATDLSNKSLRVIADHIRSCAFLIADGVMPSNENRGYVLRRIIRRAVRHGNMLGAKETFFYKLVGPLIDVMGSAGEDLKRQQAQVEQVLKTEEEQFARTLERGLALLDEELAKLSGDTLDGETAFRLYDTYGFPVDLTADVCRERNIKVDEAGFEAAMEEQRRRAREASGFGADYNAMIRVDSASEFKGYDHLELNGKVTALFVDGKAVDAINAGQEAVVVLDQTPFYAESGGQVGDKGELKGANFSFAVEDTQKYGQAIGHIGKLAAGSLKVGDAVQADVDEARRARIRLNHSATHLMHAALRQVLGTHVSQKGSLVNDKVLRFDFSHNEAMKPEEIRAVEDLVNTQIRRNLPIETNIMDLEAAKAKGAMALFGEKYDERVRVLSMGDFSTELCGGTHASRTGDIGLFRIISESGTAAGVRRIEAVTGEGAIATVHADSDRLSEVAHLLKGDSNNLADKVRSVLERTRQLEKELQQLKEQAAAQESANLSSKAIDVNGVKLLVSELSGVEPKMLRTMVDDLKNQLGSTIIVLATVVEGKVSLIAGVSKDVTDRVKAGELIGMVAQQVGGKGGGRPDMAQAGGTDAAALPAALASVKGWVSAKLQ
T2 sequence (P00961 2-689): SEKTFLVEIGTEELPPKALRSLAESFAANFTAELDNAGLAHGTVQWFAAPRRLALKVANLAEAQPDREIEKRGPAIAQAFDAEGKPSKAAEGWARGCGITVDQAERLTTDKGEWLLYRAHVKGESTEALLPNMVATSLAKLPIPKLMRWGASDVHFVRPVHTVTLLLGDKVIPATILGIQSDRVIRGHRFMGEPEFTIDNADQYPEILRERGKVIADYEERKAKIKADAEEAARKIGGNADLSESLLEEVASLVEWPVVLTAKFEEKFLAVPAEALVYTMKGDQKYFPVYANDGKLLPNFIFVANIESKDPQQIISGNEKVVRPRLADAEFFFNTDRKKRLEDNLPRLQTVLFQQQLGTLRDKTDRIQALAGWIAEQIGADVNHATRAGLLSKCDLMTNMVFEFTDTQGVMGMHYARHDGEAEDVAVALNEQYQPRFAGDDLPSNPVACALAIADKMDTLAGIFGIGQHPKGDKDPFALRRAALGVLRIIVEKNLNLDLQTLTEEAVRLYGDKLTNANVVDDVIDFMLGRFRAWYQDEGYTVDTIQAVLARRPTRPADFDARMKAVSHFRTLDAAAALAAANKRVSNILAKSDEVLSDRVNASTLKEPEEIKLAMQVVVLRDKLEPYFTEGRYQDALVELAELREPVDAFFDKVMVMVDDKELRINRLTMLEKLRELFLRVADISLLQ
T2 sequence (P00960 whole entry): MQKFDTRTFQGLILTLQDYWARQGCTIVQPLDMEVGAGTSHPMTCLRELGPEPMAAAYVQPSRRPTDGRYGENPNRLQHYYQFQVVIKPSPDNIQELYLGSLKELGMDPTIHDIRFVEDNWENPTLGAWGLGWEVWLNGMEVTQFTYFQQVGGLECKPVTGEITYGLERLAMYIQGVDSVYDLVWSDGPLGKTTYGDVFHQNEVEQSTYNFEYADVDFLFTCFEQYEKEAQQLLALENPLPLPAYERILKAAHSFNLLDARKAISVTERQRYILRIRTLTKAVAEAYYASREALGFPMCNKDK
T3 sequence (P16659 whole entry): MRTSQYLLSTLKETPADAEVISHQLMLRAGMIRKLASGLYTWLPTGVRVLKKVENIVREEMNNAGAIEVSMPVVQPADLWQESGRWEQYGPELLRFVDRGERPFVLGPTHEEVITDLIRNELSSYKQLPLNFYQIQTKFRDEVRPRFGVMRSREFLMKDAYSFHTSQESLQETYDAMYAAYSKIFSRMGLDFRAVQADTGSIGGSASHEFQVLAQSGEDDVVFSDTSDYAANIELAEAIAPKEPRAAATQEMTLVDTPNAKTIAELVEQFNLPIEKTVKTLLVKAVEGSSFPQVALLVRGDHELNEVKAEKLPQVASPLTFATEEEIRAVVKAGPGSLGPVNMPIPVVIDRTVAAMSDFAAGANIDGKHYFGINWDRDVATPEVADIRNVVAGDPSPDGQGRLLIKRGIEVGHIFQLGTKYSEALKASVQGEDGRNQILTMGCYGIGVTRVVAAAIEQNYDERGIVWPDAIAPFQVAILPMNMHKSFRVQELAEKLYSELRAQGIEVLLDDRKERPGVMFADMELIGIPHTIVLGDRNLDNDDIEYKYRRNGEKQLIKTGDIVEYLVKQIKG
T4 sequence (P07813 whole entry): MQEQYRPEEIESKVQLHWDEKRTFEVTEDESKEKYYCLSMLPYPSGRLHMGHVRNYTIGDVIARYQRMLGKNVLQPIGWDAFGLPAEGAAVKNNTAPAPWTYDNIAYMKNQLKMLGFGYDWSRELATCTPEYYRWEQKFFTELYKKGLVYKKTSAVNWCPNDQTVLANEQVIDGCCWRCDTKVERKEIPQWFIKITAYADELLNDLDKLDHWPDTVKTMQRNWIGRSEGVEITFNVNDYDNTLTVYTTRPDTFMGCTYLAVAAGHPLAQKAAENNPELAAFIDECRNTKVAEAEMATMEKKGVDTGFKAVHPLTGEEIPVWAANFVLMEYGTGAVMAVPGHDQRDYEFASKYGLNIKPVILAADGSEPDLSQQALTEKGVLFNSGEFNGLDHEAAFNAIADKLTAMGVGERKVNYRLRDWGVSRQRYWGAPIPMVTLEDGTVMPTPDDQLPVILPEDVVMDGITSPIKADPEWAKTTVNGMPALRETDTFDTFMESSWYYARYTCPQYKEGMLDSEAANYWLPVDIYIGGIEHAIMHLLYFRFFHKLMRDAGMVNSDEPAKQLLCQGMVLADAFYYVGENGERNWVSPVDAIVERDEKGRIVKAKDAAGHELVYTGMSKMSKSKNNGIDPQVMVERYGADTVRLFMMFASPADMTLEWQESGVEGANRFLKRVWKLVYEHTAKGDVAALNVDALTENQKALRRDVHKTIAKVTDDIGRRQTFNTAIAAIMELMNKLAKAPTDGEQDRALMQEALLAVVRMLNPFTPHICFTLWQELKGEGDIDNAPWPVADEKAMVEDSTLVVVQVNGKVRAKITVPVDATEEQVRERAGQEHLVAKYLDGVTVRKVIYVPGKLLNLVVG

With `C[C@H](N)C(=O)NS(=O)(=O)OC[C@H]1O[C@@H](n2cnc3c(N)ncnc32)[C@H](O)[C@@H]1O` [Ala-SA] as the compound, how does the “inhibition of AlaRS” value [1] read?
The value was “potent inhibitors”.

For `NCC(=O)NS(=O)(=O)OC[C@H]1O[C@@H](n2cnc3c(N)ncnc32)[C@H](O)[C@@H]1O` [Gly-SA], which “inhibition of GlyRS” value [2] is on record?
Its value is “potent inhibitors”.

For `Nc1ncnc2c1ncn2[C@@H]1O[C@H](COS(=O)(=O)NC(=O)[C@@H]2CCCN2)[C@@H](O)[C@H]1O` [Pro-SA, 5’-O-[N-[(L)-prolyl]-sulfamoyl]adenosine], which “inhibition of ProRS” value [3] is on record?
The value was “potent inhibitors”.

Which results are given for `CN[C@@H](CC(C)C)C(=O)NS(=O)(=O)OC[C@H]1O[C@@H](n2cnc3c(N)ncnc32)[C@H](O)[C@@H]1O` [compound 2, 5’-O-[N-[(L)-N-methyl-leucyl]-sulfamoyl]adenosine]?
whole-cell activity (growth inhibition) [4]: inactive; inhibition of LeuRS aminoacylation [5]: inactive

What does the source list for `CNCC(=O)NS(=O)(=O)OC[C@H]1O[C@@H](n2cnc3c(N)ncnc32)[C@H](O)[C@@H]1O` [compound 3, sarcosyl-sulfamoyladenosine]?
inhibition of ProRS aminoacylation [6]: does not show any major inhibitory binding affinity; whole-cell activity (growth inhibition) [4]: inactive; inhibition of GlyRS aminoacylation [7]: could not be targeted; inhibition of AlaRS aminoacylation [8]: could not be targeted

For `CSCC[C@H](NC=O)C(=O)N[C@H](CCCNC(=N)N)C(=O)N[C@@H](C(=O)NCC(=O)N[C@H](CC(N)=O)C(=O)N[C@H](C)C(=O)N[C@@H](CC(=O)O)C(=O)NS(=O)(=O)OC[C@H]1O[C@@H](n2cnc3c(N)ncnc32)[C@H](O)[C@@H]1O)[C@H](C)O` [compound 4] (For-M[dR][dT]G[dN][dA]-{AspNHSO2(5'-O-Ado)}), which “metabolism by the peptidases (release of the active moiety)” value [9] is on record?
The value was “not capable of hydrolyzing”.

With `CSCC[C@H](NC=O)C(=O)N[C@@H](CCCNC(=N)N)C(=O)N[C@H](C(=O)NCC(=O)N[C@@H](CC(N)=O)C(=O)N[C@@H](C)C(=O)N[C@H](CC(=O)O)C(=O)NS(=O)(=O)OC[C@H]1O[C@@H](n2cnc3c(N)ncnc32)[C@H](O)[C@@H]1O)[C@@H](C)O` [compound 8] (For-MRTGNA-X1) as the compound, how does the “reduction of esterification of Asp-C14 to tRNAAsp” value ([10]; time course, extract from cells lacking DTD, after 60 min) read?
The value was 44%.

What about the “incorporation of Asp-C14 into tRNAAsp” value [10, 11] of the same compound?
Its value is 11%.

What about the “inhibition of tRNAAsp aminoacylation” value [10, 11] of the same compound?
The value was 89%.

And the “metabolism by the peptidases (release of the active moiety)” value [9]?
Its value is “can metabolize”.

With `Nc1ncnc2c1ncn2[C@@H]1O[C@H](COS(=O)(=O)NC(=O)[C@H](N)CC(=O)O)[C@@H](O)[C@H]1O` [compound 9, (D)-aspartyl-sulfamoyladenosine] as the compound, how does the “inhibition of AspRS in vitro” value [10] read?
The value was “can also inhibit AspRS”.

And the “inhibition of AspRS in vitro” value ([10]; listed as (D)-D-SA)?
The value was “equally inhibitory”.

With `Nc1ncnc2c1ncn2[C@@H]1O[C@H](COS(=O)(=O)NC(=O)[C@@H](N)CC(=O)O)[C@@H](O)[C@H]1O` [compound 10, (L)-aspartyl-sulfamoyladenosine, reference compound] as the compound, how does the “inhibition of AspRS in vitro” value [10] read?
Its value is “equally inhibitory”.
